Numbers after ± are expanded uncertainties.
Conditions: Liquid, Vibrating tube method

Compound `CCCCn1cc[n+](C)c1.F[B-](F)(F)F` [1-butyl-3-methylimidazolium tetrafluoroborate] has a mass density (298.15 K, 280 kPa) of 1211.19 ± 1.3 kg/m3, a mass density (298.15 K, 5640 kPa) of 1213.63 ± 1.4 kg/m3 and a mass density (298.15 K, 10620 kPa) of 1215.85 ± 1.4 kg/m3. The mass density (298.15 K, 15340 kPa) was 1217.77 ± 1.4 kg/m3, the mass density (298.15 K, 20640 kPa) was 1220.29 ± 1.5 kg/m3 and the mass density (298.15 K, 25270 kPa) was 1222.18 ± 1.5 kg/m3. The mass density (298.15 K, 30050 kPa) was 1223.93 ± 1.6 kg/m3, the mass density (298.15 K, 35410 kPa) was 1226.07 ± 1.6 kg/m3 and the mass density (298.15 K, 39610 kPa) was 1227.81 ± 1.7 kg/m3. The mass density (323.15 K, 730 kPa) was 1192.89 ± 1.3 kg/m3, the mass density (323.15 K, 5640 kPa) was 1195.3 ± 1.3 kg/m3 and the mass density (323.15 K, 10610 kPa) was 1197.71 ± 1.4 kg/m3. For the same compound, the mass density (323.15 K, 15440 kPa) was 1200.01 ± 1.4 kg/m3, the mass density (323.15 K, 20460 kPa) was 1202.37 ± 1.4 kg/m3 and the mass density (323.15 K, 25360 kPa) was 1204.64 ± 1.5 kg/m3. The mass density (323.15 K, 30740 kPa) was 1207.09 ± 1.5 kg/m3, the mass density (323.15 K, 35650 kPa) was 1209.29 ± 1.6 kg/m3 and the mass density (323.15 K, 39850 kPa) was 1211.14 ± 1.6 kg/m3. It also gave a mass density (348.15 K, 210 kPa) of 1174.44 ± 1.2 kg/m3, a mass density (348.15 K, 5960 kPa) of 1177.75 ± 1.3 kg/m3 and a mass density (348.15 K, 10480 kPa) of 1180.3 ± 1.3 kg/m3. The mass density (348.15 K, 15430 kPa) was 1182.72 ± 1.3 kg/m3, the mass density (348.15 K, 20870 kPa) was 1185.63 ± 1.4 kg/m3 and the mass density (348.15 K, 25850 kPa) was 1188.16 ± 1.4 kg/m3. For the same compound, the mass density (348.15 K, 30110 kPa) was 1190.19 ± 1.5 kg/m3, the mass density (348.15 K, 35110 kPa) was 1192.88 ± 1.5 kg/m3 and the mass density (348.15 K, 39610 kPa) was 1194.77 ± 1.6 kg/m3. For the same compound, the mass density (373.15 K, 470 kPa) was 1157.24 ± 1.2 kg/m3, the mass density (373.15 K, 5350 kPa) was 1160.25 ± 1.2 kg/m3 and the mass density (373.15 K, 10080 kPa) was 1163.09 ± 1.2 kg/m3. For the same compound, the mass density (373.15 K, 15710 kPa) was 1166.39 ± 1.3 kg/m3, the mass density (373.15 K, 20970 kPa) was 1169.38 ± 1.3 kg/m3 and the mass density (373.15 K, 25820 kPa) was 1172.07 ± 1.4 kg/m3. For the same compound, the mass density (373.15 K, 30120 kPa) was 1174.39 ± 1.4 kg/m3, the mass density (373.15 K, 35530 kPa) was 1177.22 ± 1.5 kg/m3 and the mass density (373.15 K, 39820 kPa) was 1179.41 ± 1.5 kg/m3. The mass density (398.15 K, 870 kPa) was 1141.05 ± 1.1 kg/m3, the mass density (398.15 K, 6670 kPa) was 1144.53 ± 1.2 kg/m3 and the mass density (398.15 K, 10490 kPa) was 1147.07 ± 1.2 kg/m3. It also gave a mass density (398.15 K, 15730 kPa) of 1150.32 ± 1.2 kg/m3, a mass density (398.15 K, 20980 kPa) of 1153.78 ± 1.3 kg/m3 and a mass density (398.15 K, 25140 kPa) of 1156.3 ± 1.3 kg/m3. The mass density (398.15 K, 30890 kPa) was 1159.52 ± 1.4 kg/m3, the mass density (398.15 K, 35810 kPa) was 1162.4 ± 1.4 kg/m3 and the mass density (398.15 K, 39560 kPa) was 1164.38 ± 1.4 kg/m3.
